In the oligonucleotide strings, read from the 5' end, every base follows the letter of its sugar. An asterisk marks phosphorothioate; unmarked linkages are phosphodiester. Other units and linkages are bracketed, terminal groups are in braces. A string of capitals states the bases alone. k = constrained ethyl (cEt); [5mC] = 5-methylcytosine; d = 2'-deoxy (DNA)
Columns and labels:
CT-26 tumors = assay: CT-26 tumor volume with control ASO and isotype control antibody (Example 4); type: in vivo, mouse; conditions: FIG. 4
Method: (§1) The antitumor efficacy of mouse STAT3 ASO in combination with antibodies targeting PD-L1 or CTLA-4, or with an OX40 ligand fusion protein, were evaluated in three mouse syngeneic tumor models: CT-26 (colorectal), 4T1 (mammary) and A20 (lymphoma). Details of tumor implantation and treatment schedules for each model are in the table below. The QD×5/wk dosing schedule for the STAT3 ASO (same ASO as used in Example 1) was 5 days of treatment followed by 2 days without treatment. The 2×/wk dosing schedule for antibodies was 2 treatments/wk evenly spaced over the course of the week (e.g., Monday and Thursday, or Tuesday and Friday, etc.). ASO treatments began before randomization into treatment groups. […] There were ten mice in each treatment group.
(§2) The mouse STAT3 ASO was formulated in PBS and dosed subcutaneously. The Abs and FP were also formulated in PBS, and dosed introperitoneally. During the course of the experiment, tumor length and width were measured by caliper, and tumor volume calculated using the formula volume=(length×width^2)*π/6.
The CT-26 experiment in Example 3 included treatment with a control ASO (AZD9150) and an isotype control antibody (rat IgG2b, product LTF-2, purchased from BioXCell, West Lebanon NH) as negative controls.

mouse STAT3 sequences = assay: Cross reaction of human STAT3 ASO with mouse STAT3 sequences; conditions: human STAT3 targeted ASO
immune-related genes = assay: Nanostring gene expression profiling of patient tumor biopsies, Phase I trial (Example 8); type: in vivo, human; conditions: DLBCL patients; 2 or 3 mg/kg; 4-6 weeks on treatment vs baseline; five of six signature genes
Method: Tumor biopsies were collected in a Phase I clinical trial from cancer patients treated with AZD9150 before treatment started and at 4-6 weeks after treatment commenced. Patients received three loading doses 2 or 3 mg/kg AZD9150 during the first week on days 1, 3, and 5, followed by weekly doses thereafter. Nine of the sets of biopsies were from patients with Diffuse Large B Cell Lymphoma, two were from patients with follicular lymphoma, and one was from a patient with non-small cell lung cancer. The biopsies were formalin fixed and paraffin embedded and sectioned. RNA was isolated from six five-micron sections of each biopsy and subjected to Nanostring gene expression profiling analysis using the nCounter Human Immunology Codeset representing 594 immune-related genes. Raw data were calibrated according to Veldman-Jones et al., (Cancer Research. 75:2587, 2015) and analyzed for changes on-treatment compared to the baseline pretreatment samples. A heatmap representing unsupervised clustering of the largest and most statistically relevant gene expression changes in DLBCL was generated.

DLBCL and HCC = assay: AZD9150 Phase I clinical trials; type: in vivo, human
advanced melanoma = conditions: phase III; cited from earlier work
[1] = system: CT-26 (colorectal), 4T1 (mammary) and A20 (lymphoma); assay: Three mouse syngeneic tumor models, tumor volume (Example 3); type: in vivo; conditions: at the doses and schedules of Example 3; FIG. 3
Method: as §1, §2

xenograft model = conditions: via a T-cell dependent mechanism; cited from earlier work

AZD9150: human STAT3 antisense 3-10-3 cEt gapmer, phosphorothioate, 5-methylcytosines, CTATTTGGATGTCAGC (SEQ ID NO: 2) (antisense k[5mC]*kT*kA*dT*dT*dT*dG*dG*dA*dT*dG*dT*d[5mC]*kA*kG*k[5mC])
enhancement of the activity of the anti-PD-L1 antibody (CT-26 tumors; AZD9150 plus PD-L1 Ab, CT-26 tumors): no enhancement of the activity of the anti-PD-L1 antibody
antitumor activity of negative controls (CT-26 tumors; mice bearing CT-26 tumors): No Antitumor Activity
cross reaction with mouse STAT3 sequences (mouse STAT3 sequences): does not cross react with mouse STAT3 sequences
upregulated "interferon gamma gene signature" genes in tumor biopsies (immune-related genes): STAT1, IFN-gamma, CXCL9, CXCL10, and IDO
clinical response (DLBCL and HCC): clinical responses in DLBCL and HCC at tolerated doses

tremelimumab: human IgG2 monoclonal antibody highly selective for CTLA-4
overall survival compared to standard of care (temozolomide or dacarbazine) (advanced melanoma): did not significantly increase the overall survival

B1: OX40 ligand FP: Mouse OX40 ligand fusion protein generated in house, SEQ ID NO: 37 and 38 (protein)
chain: VPRDCGCKPCICTVPEVSSVFIFPPKPKDVLTITLTPKVTCVVVDISKDDPEVQFSWFVDDVEVHTAQTQPREEQFNSTFRSVSELPIMHQDWLNGKEFKCRVNSAAFPAPIEKTISKTKGRPKAPQVYTIPPPKEQMAKDKVSLTCMITDFFPEDITVEWQWNGQPAENYKNTQPIMDTDGSYFVYSKLNVQKSNWEAGNTFTCSVLHEGLHNHHTEKSLSHSPGKRLDQDKIEALSNKVQQLERSIGLKDLAMADLEQKVSELEVSTSSPAKDPPIQRLRGAVTRCEDGQLFISSYKNEYQTMEVQNNSVVIKCDGLYIIYLKGSFFQEVKIDLHFREDHNPISIPMLNDGRRIVFTVVASLAFKDKVYLTVNAPDTLCEHLQINDGELIVVQLTPGYCAPEGSYHSTVNQVPL
modifications: misc_feature 1..1248 DNA Sequence of mouse construct mIgG1mTF2mOX40L
single agent antitumor activity [1]: weak to modest single agent antitumor activity

B2: MEDI4736: human monoclonal antibody directed against human PD-L1 (antibody, V domains shown)
VH: EVQLVESGGGLVQPGGSLRLSCAASGFTFSRYWMSWVRQAPGKGLEWVANIKQDGSEKYYVDSVKGRFTISRDNAKNSLYLQMNSLRAEDTAVYYCAREGGWFGELAFDYWGQGTLVTVSS
VL: EIVLTQSPGTLSLSPGERATLSCRASQRVSSSYLAWYQQKPGQAPRLLIYDASSRATGIPDRFSGSGSGTDFTLTISRLEPEDFAVYYCQQYGSLPWTFGQGTKVEIK
modifications: MEDI4736 VH; Sequence 72 from PCT/US2010/058007; MEDI4736 VL; Sequence 77 from PCT/US2010/058007
notes: human monoclonal antibody directed against human PD-L1
tumor growth in a xenograft model (xenograft model): inhibits tumor growth

Reference: patent US20230374503A1, “COMBINATION” (AstraZeneca AB, priority 2014, published 2023)
